Consider 6 compounds from patent US20200325505A1, “FILAMENTOUS FUNGI CAPABLE OF PRODUCING VERY LONG CHAIN FATTY ACIDS” (UT-Battelle, LLC, priority 2019, published 2020).

SMILES strings stand for the structures.

Data set [1] concerns Mortierella elongata AG77. The data set is described as follows: Carbon source utilisation in Biolog 96-well plates, formazan formation after tetrazolium addition. Format: cell-based. The conditions noted are these: for Metabolized: compound as carbon source, Metabolized = more formazan formation than a control containing no carbon source, observed visually at 2 h, 24 h, 148 h; for Carbon sources that Mortierella elongata AG77 can metabolize: summary of Table 3. In short, it runs like this:
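Carbon- or nitrogen-free mineral medium (pH 5.5) was dispensed onto lyophilised carbon or nitrogen sources and inoculated with 3 mm mycelial plugs of M. elongata grown on PDA. After 24 h at 21 °C, tetrazolium chloride was added and formazan was scored visually at 2, 24 and 148 h against a no-carbon-source control.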

Data set [2] has as its system Mortierella elongata AG77. The data set is described as follows: Nitrogen source utilisation in Biolog 96-well plates, formazan formation after tetrazolium addition. The conditions noted are these: for Metabolized: compound as nitrogen source, Metabolized = more formazan formation than a control containing no nitrogen source, observed visually at 2 h, 24 h, 148 h. Format: cell-based. How it is done: Two 300 mL volumes of growth medium comprising 1 g/L KH2PO4, 1 g/L MgSO4 7H2O, 0.1 g/L CaCl2, 0.02 g/L FeNaEDTA, 0.1 g/L NaCl, and either 1 g/L NH4NO3 or 20 g/L sucrose were prepared. […] Aliquots of 200 μL of carbon-free medium or nitrogen-free medium were pipetted into each well of a set of 96-well plates previously prepared with lyophilized putative carbon or nitrogen sources (Biolog Inc., Hayward, Calif.). Inocula were prepared by perforating a culture of Mortierella elongata AG77 grown on 20 g/L potato dextrose agar with a 3 mm diameter cork borer and separating the surface mycelial mat from the solid growth medium using tweezers. Each well was inoculated with one inoculum. Cultures were incubated at 21° C. for 24 hours to allow metabolic changes to stabilize, and then 100 μL of 3 g/L tetrazolium chloride in water was added to each well.
Conclusions were based on rate and intensity of formazan formation using the 3-(4,5-dimethylthiazol-2-yl)-2,5-diphenyltetrazolium bromide ([…]) assay. “Metabolized” indicates more formazan formation than a control containing no nitrogen source, and “Toxic” indicates less formazan formation than a control containing no nitrogen source, “Metabolized” and “Toxic” assignments are mutually exclusive. In this example, a compound may be “Metabolized” or “Toxic,” but not both.

`NCCCCN` [Putrescine]: in data set [1], the Toxic entry was “no”, the Metabolized result is reported as “yes” and the “Carbon sources that Mortierella elongata AG77 can metabolize” value was “can metabolize”. Besides, in data set [2], the Toxic result was “no” and the Metabolized entry is recorded as “no”.

`Cc1cn([C@H]2C[C@H](O)[C@@H](CO)O2)c(=O)[nH]c1=O` [Thymidine]: the Toxic result in data set [1] and in data set [2] was “no” in each case. The Metabolized entry in data set [1] and in data set [2] was “no” in each case.

As for `NCCc1ccc(O)cc1` [Tyramine], in data set [1], the Toxic result is recorded as “no”, the Metabolized result was “yes” and the “Carbon sources that Mortierella elongata AG77 can metabolize” value was “can metabolize”. Moreover, in data set [2], the Toxic result is reported as “no” and the Metabolized entry is reported as “no”.

With `O=c1ccn([C@@H]2O[C@H](CO)[C@@H](O)[C@H]2O)c(=O)[nH]1` [Uridine], in data set [1], the Toxic entry was “no” and the Metabolized entry was “no”. For the same compound, in data set [2], the Toxic result is given as “no” and the Metabolized entry is “no”.

As for `NCCCC(=O)O` [γ-Amino Butyric Acid], in data set [1], the Toxic result is “no” and the Metabolized result is “no”. Further, in data set [2], the Toxic result is listed as “no” and the Metabolized result is listed as “yes”. Further, the “Nitrogen sources that Mortierella elongata AG77 can metabolize” value in data set [2] (text summary of Table 4) is reported as “can metabolize”.

As to `NCCCCC(=O)O` [δ-Amino Valeric Acid], the Toxic result in data set [1] and in data set [2] was “no” throughout. The Metabolized result in data set [1] and in data set [2] was “no” each time.
